Counter-ions that a name gives are not always drawn.
Legend:
[1] = system: hMDMs differentiated into M1 by IFNγ plus TNFα; test: Reprogramming screen and dosage response on M1-like differentiated macrophages; type: cell-based, human; conditions: Homo sapiens, Macrophage, 24 h; M2-activating compounds on M1-like macrophages (IFNγ plus TNFα); EC = concentration reaching Z-score cutoff
Experimental: Data were summarized from 3 independent experiments.
Human macrophages were seeded into optical 384-well plates. Sixteen hours later, medium in M1 plates were replaced by M1 differentiating medium (complete RPMI with 50 ng/mL IFNγ and 50 ng/mL TNFα) and medium in M2 plates by M2 differentiating medium (complete RPMI with 5 ng/mL IL-4 and 5 ng/mL IL-13). After 24 hrs cell differentiation, M1 plates (M1 macrophages) and M2 plates (M2 macrophages) were treated with M2-activating compounds and M1-activating compounds respectively for 24 hrs. Two independent experiments were performed with or without replacing differentiating medium right before treatment. Cell imaging and analysis were performed as indicated above.
To investigate whether the identified compounds could reprogram or reactivate macrophages after M1- or M2-like differentiation, we rescreened the hits on M1- or M2-activated macrophages. hMDMs were activated into M2-like macrophages by IL-4 plus IL-13 or M1-like macrophages by IFNγ plus TNFα. […] 24 hours later, cell images were taken and cell shapes were quantified.
We also rescreened the hits on differentiated macrophages in the presence of differentiating cytokines: either IL-4 plus IL-13 or IFNγ plus TNFα.

[2] = system: M1-like and M2-like differentiated hMDMs; test: RNA-seq of differentiated macrophages reprogrammed by compounds; type: cell-based, human; conditions: compound at EC, 24 hours
Experimental: FIGS. 4A-4F show reprogramming of differentiated macrophages by selected compounds. […] Controls include two differentiated M1 and M2 macrophages, M2 macrophages treated with IFNγ and M1 macrophages treated with IL-4. Gene expression in each sample was measured by RNA-seq separately. […] FIG. 4D show network of GO enriched terms using BiNGO on top 10% central hubs genes (n=1255) of macrophage activation network. Node color and size represent the FDR values of enriched GO terms. […] Shared (FIG. 4E) and unique pathways (FIG. 4F) are shown. Compound targets and FDA-approval information are indicated. […]
Differentially expressed genes were annotated using online functional enrichment analysis tool DAVID (http://david.ncifcrf.gov/). […] To quantify the levels of RNA transcripts, total RNA was extracted from various cells and reverse transcribed by TaqMan® Reverse Transcription Reagents Kit (ABI Catalog No. N8080234), followed by amplification with Sybr Green Master Mix (Roche Catalog No. 04707516001) with specific primers (Table 4) and detected by Roche LightCycler 480. […]
To determine the central hubs of all stimulation conditions by compounds (refer to FIG. 4) reflecting the core macrophage activation network, transcriptional interactions between genes were first determined by ARACNe based on the perturbed transcriptional profiles of 34 compounds as well as IFNγ and IL4 controls. […]

[3] = system: M0 macrophages (hMDMs); test: Dosage response of cell shape change on M0 macrophages; type: cell-based, human; conditions: M0 macrophages
[4] = system: hMDMs differentiated into M2 by IL-4 plus IL-13; test: Reprogramming screen and dosage response on M2-like differentiated macrophages;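 further: human monocyte-derived macrophages held 24 h in 5 ng/mL IL-4 plus IL-13 before 24 h compound exposure, with cell shape measured from images in 384-well plates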
[5] = system: ImKCs (immortalized line of mouse Kupffer cells); test: Seahorse ECAR/OCR (glycolysis, OxPhos) in ImKCs; type: cell-based; conditions: ImKCs, S1P 3 mM, 24 hrs
Experimental: Shown are representative data of three independent experiments. […] Data are presented as the mean±sd (n=4).
FIGS. 21A-21I show DPI stimulates glycolysis through GPR3 and β-arrestin2. FIGS. 21A-21B show DPI-stimulated glycolysis is independent of the NOX activity. […] The mean fluorescence intensity (MFI) of 2-NBDG in cells was measured by flow cytometry and normalized to DMSO controls of wildtype BMDMs. Data are presented as the mean±sd (n=3). […] ImKCs were transfected with siRNA specific for Gpr3 or a scramble siRNA as control. […] Data are presented as the mean±sd (n=4). […] Data are presented as the mean±sd (n=12). […] Abbr2^−/− ImKC were constructed by CRISPR-Cas9-mediated gene editing. […] Data are presented as the mean±sd (n=4). […] ImKCs were transfected with Abbr2-GFP fusion gene and stimulated with DMSO, DPI (50 nM), or S1P (3 mM). The GFP signal was captured with a TIRF microscope at indicated time points. Shown are representative data of GFP signal at 0 min and 10 min, and merged signal from three independent experiments.
Specific parameters for glycolytic capacity and glycolytic reserve were calculated and summarized based on two independent experiments. […] The GFP signal was captured with a TIRF microscope at indicated time points. Shown are representative data of GFP signal at 0 min and 10 min, and the merged signal from three independent experiments.
OCR and ECAR were measured in isolated tissues or cultured ImKCs using the Seahorse XFe Extracellular Flux Analyzer (Agilent). For tissue respiration assays, 1.0 mg adipose tissue was dissected from inguinal WAT depots by using a surgical biopsy instrument (Integra Miltex Standard Biopsy Punches, Thermo Fisher) and placed into XF96 Islet Capture Microplates and pre-incubated with XF assay medium with pH value at 7.4. XF assay medium supplemented with 1 mM sodium pyruvate, 2 mM GlutaMax™-I, and 25 mM glucose. Isolated MDMs or Kupffer cells were subjected to a mitochondrial stress test by adding oligomycin (2 μM) followed by carbonyl cyanide 4-(trifluoromethoxy), phenylhydrazone (FCCP, 5 μM), and antimycin (1 μM). For glucose stress assay and ECAR measurement, XF assay medium was supplemented only with GlutaMax™-I. Tissue or cells were subjected to a glucose stress test by adding highly concentrated glucose (for tissue, 25 mM; for cells, 10 mM), followed by adding oligomycin (5 μM), FCCP (5 μM), and 2-DG (50 mM). Cells were seeded in culture dishes, and the medium was changed after 6 hours with serum-free DMEM. Cells were incubated for 12-16 hours, and the culture medium was then collected for measurement of glucose and lactate concentrations. Glucose levels were determined using a glucose (GO) assay kit (Sigma). Glucose consumption was the difference in glucose concentration when compared with DMEM. Lactate levels were determined using a lactate assay kit (Eton Bioscience).
DPI is an agonist of GPR3 and an inhibitor of […] oxidase (NOX). We first determined the requirement of NOX in DPI-stimulated glycolysis.
To determine the requirement of GPR3, we knocked down GPR3 by siRNA (siGpr3) in ImKCs.
β-arrestin2, encoded by Arrb2, has been reported to bind to GPR3 and is required for GPR3 signaling. To investigate the requirement of 0-arrestin2 in DPI-stimulated glycolysis, we constructed Arrb2^−/− ImKCs using CRISPR-Cas9 mediated gene editing (FIG. 28F).

[6] = system: hMDMs; test: Flow cytometry of M1 markers (CD80, CD86) and M2 markers (CD206, CD163) in hMDMs; type: cell-based, human; conditions: 24 hrs
Experimental: FIGS. 7A-7B show morphology and phenotypes of activated macrophages. […] The resulting macrophages were polarized to M1 by IFNγ or M2 by IL4. Then, M1 macrophages were treated with M2-type compound bosutinib ([…]) for 24 hrs, and M2 macrophages were treated with M1-type compound thiostrepton ([…]) for 24 hrs. F-actin was stained and images were acquired by fluorescent microscopy with 60× objective. Cell nuclei are stained with DAPI. Representative data were shown from two independent experiments. […] Shown are the representative staining profiles from three independent experiments. The numbers show mean fluorescent intensity (MFI)+/−standard error of the mean (SEM) for n=3 samples per group.
FIGS. 9A-9C show comparison of the differentially expressed genes induced by selected compounds (FIG. 9A), ligands for novel pathways (FIG. 9B), and controls (IL-4 and IFNγ). […] Shown are the changes of the relative mean fluorescence intensity (MFI) to controls. 0.2 refers to 20% MFI increase.
B6 mice were purchased from the Jackson Laboratory and maintained in the animal facility at the Massachusetts Institute of Technology (MIT). NSG mice were purchased from the Jackson Laboratory and maintained under specific pathogen-free conditions in the animal facilities at MIT. […] The data were analyzed by FlowJo. […]

[7] = system: human monocyte-derived macrophages (hMDMs); test: High throughput phenotypic screen of macrophage activation (cell shape, Z-score); type: cell-based; conditions: known M1-/M2-activating stimuli;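 further: phalloidin and DAPI stained hMDMs imaged by high-content microscopy, cell eccentricity compared with DMSO control by T-test, round morphology scored negative, elongated positive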
Experimental: The Z-score was calculated by T-test to measure the difference of cell morphology between treatment and control. Stimuli had negative Z-scores when induced cells to round morphology and positive scores when induced cells to elongated morphology. […] Equally mixed human monocytes isolated from fresh blood of 4 healthy donors were cultured in vitro with 50 ng/mL M-CSF for 7 days. hMDMs were trypsinized and plated on 384-well plates (5000 cells/well in 50 μL). Cells were recovered in 10 ng/mL M-CSF for 16 hrs and then treated with compounds for 24 hrs. Cells were washed, fixed and stained with Phalloidin and DAPI. The plates were scanned with a high-content microscope with six-fields per well to quantify the cell number and cell morphology. […] The cell eccentricity was calculated to measure the cell morphology. The Z-score was calculated by T-test to measure the difference in cell morphologies between each compound and DMSO control.
Cells were treated with a library of over 4000 individual compounds or drugs at the final concentration of 20 μM using the CyBi-Well simultaneous pipettor (CyBio). […] After 24 hr incubation, supernatants were removed using the microplate washer (Bioteck) and cells were fixed by adding 50 μL 16% paraformaldehyde (Thermo Scientific) with the dispenser for 20 minutes. Cells were then washed with 50 μL 1×PBS twice and incubated for 20 minutes with NucBlue and AF746 Phalloidin (Invitrogen) to stain nucleus and cytoskeleton. Cells were then washed with 50 μL 1×PBS twice and maintained in PBS for the image acquirement. Plates were read in the Opera Phenix high content screening system (PerkinElmer) to photograph cells using 20× objective in 2 fluorescent channels (Blue and FarRed). A total of 6 different fields in each well and an average of 1,000 cells were imaged per well. CellProfiler was used to identify each cell by overlapping signals from its nucleus and cytoskeleton, and calculate the eccentricity as the parameter to measure the cell morphology. The Z-score was calculated by T-test to measure the difference of cell morphology between each treatment and control. For each row of the 384-well plate, total 4 wells with first and last two columns treated with the same concentration of DMSO were combined as the control for the other 20 treatment wells in that row. In the meantime, classic M1 and M2 stimuli were added to generate the gold-standard Z-score cutoffs with M1 or M2 activation. Classic M1 stimuli include LPS (100 ng/mL), IFNγ (50 ng/mL, Peprotech), TNFα (50 ng/mL, Peprotech), or IFNγ plus TNFα. Classic M2 stimuli include IL-10 (10 ng/mL, Peprotech), IL-4 (10 ng/mL, Peprotech), or IL-13 (5 ng/mL, Peprotech).

C(=N\NC1=NCCN1)/c1c2ccccc2c(/C=N/NC2=NCCN2)c2ccccc12 [Bisantrene dihydrochloride]
EC (M2 Z-score cutoff) [1]: 1.98 µM | unique pathway perturbed [2]: perturbed the pathway of DNA topological change

Nc1ccccc1NC(=O)c1ccc(CNC(=O)OCc2cccnc2)cc1 [MS275]
Category [3]: M1 (−4 for M1-activated macrophages) | EC ([3]; EC = concentration inducing cell morphology changes to reach the M1 or M2 Z-score cutoff, Michaelis-Menten fit, 3 independent experiments, unit of the source corrected): 1.05 µM | Max absolute Z-value ([3]; Max Z-score from Michaelis-Menten equation, negative = round, positive = elongated): −7.993 | EC ([4]; M1-activating compounds on M2-like macrophages (IL-4 plus IL-13), EC = concentration reaching Z-score cutoff): 0.811 µM | Category ([4]; differentiated macrophages): M1 (−4 for M1-activated macrophages) | unique pathway perturbed [2]: perturbed the pathway of chromatin assembly

CCCCCCCCCCCCC/C=C/[C@@H](O)[C@@H](N)COP(=O)(O)O [S1P, sphingosine-1-phosphate]
glycolysis [5]: significant increase

IFNγ: classic M1 stimulus
expression of M1 markers CD80 and CD86 [6]: up-regulated | expression of M2 markers CD206 and CD163 [6]: suppressed | cell shape induced [7]: round shape
